Measurements as given in ChEMBL document CHEMBL5325424, “Structural design, synthesis, and anti-Trypanosomatidae profile of new Pyridyl-thiazolidinones” (Eur J Med Chem, 2023).
The source made the active and inactive calls. The calls are words filed in the database; no cut-off is given here.

Experiments:
[1] = Cytotoxicity against mouse RAW264.7 cells incubated for 48 hrs by MTT assay; type: toxicity, cell-based
[2] = system: Trypanosoma cruzi; experiment: Antitrypanosomal activity against Trypanosoma cruzi Y trypomastigotes infected in African green monkey Vero cells assessed as parasite growth inhibition incubated for 24 hrs by hemocytometry; type: functional, organism-based
[3] = Selectivity index, ratio of CC50 for mouse RAW264.7 cells to IC50 for Trypanosoma cruzi Y trypomastigotes infected in African green monkey Vero cells; type: toxicity; details: read-out: Ratio CC50/IC50
[4] = system: Trypanosoma cruzi; experiment: Antitrypanosomal activity against Trypanosoma cruzi Tulahuen amastigotes infected in mouse L929 cells assessed as parasite growth inhibition measured after 7 days by CPRG/Nonidet based assay; type: functional, organism-based; details: L929, 168 h
[5] = Selectivity index, ratio of CC50 for mouse RAW264.7 cells to IC50 for Trypanosoma cruzi Tulahuen amastigotes infected in mouse L929 cells; type: toxicity, cell-based; details: read-out: Ratio CC50/IC50
[6] = system: Trypanosoma cruzi; experiment: Induction of morphological changes in Trypanosoma cruzi trypomastigotes assessed as appearance of contorted body at IC50 incubated for 24 hrs by SEM analysis; type: functional, organism-based
[7] = system: Trypanosoma cruzi; experiment: Induction of morphological changes in Trypanosoma cruzi trypomastigotes assessed as appearance of rounded body at 2 times IC50 incubated for 24 hrs by SEM analysis; type: functional, organism-based
[8] = system: Trypanosoma cruzi; experiment: Induction of morphological changes in Trypanosoma cruzi trypomastigotes membrane assessed as appearance of membrane rupture at 2 times IC50 incubated for 24 hrs by SEM analysis
[9] = system: Trypanosoma cruzi; experiment: Induction of morphological changes in Trypanosoma cruzi trypomastigotes assessed as appearance of shortened flagellum at IC50 incubated for 24 hrs by SEM analysis; type: functional, organism-based
[10] = system: Trypanosoma cruzi; experiment: Induction of morphological changes in Trypanosoma cruzi trypomastigotes assessed as appearance of thinned flagellum at 2 times IC50 incubated for 24 hrs by SEM analysis; type: functional, organism-based
[11] = system: Trypanosoma cruzi; experiment: Induction of morphological changes in Trypanosoma cruzi trypomastigotes assessed as appearance of loss of cytoplasmic content at 2 times IC50 incubated for 24 hrs by SEM analysis; type: functional, organism-based
[12] = system: Trypanosoma cruzi; experiment: Induction of apoptosis in Trypanosoma cruzi trypomastigotes assessed as early apoptotic cells at IC50 incubated for 24 hrs by annexin V-FITC/PI staining based flow cytometry (reference value: 0.10 %); type: functional
[13] = system: Trypanosoma cruzi; experiment: Induction of apoptosis in Trypanosoma cruzi trypomastigotes assessed as late apoptotic cells at IC50 incubated for 24 hrs by annexin V-FITC/PI staining based flow cytometry (reference value: 2.58 %); type: functional
[14] = system: Trypanosoma cruzi; experiment: Induction of apoptosis in Trypanosoma cruzi trypomastigotes assessed as necrotic cells at IC50 incubated for 24 hrs by annexin V-FITC/PI staining based flow cytometry (reference value: 4.05 %); type: functional
[15] = system: Trypanosoma cruzi; experiment: Induction of apoptosis in Trypanosoma cruzi trypomastigotes assessed as early apoptotic cells at 2 times IC50 incubated for 24 hrs by annexin V-FITC/PI staining based flow cytometry (reference value: 0.10 %); type: functional
[16] = system: Trypanosoma cruzi; experiment: Induction of apoptosis in Trypanosoma cruzi trypomastigotes assessed as late apoptotic cells at 2 times IC50 incubated for 24 hrs by annexin V-FITC/PI staining based flow cytometry (reference value: 2.58 %); type: functional
[17] = system: Trypanosoma cruzi; experiment: Induction of apoptosis in Trypanosoma cruzi trypomastigotes assessed as necrotic cells at 2 times IC50 incubated for 24 hrs by annexin V-FITC/PI staining based flow cytometry (reference value: 4.05 %); type: functional
[18] = system: Splenocyte; experiment: Immunomodulatory activity in mouse splenocytes assessed as effect on IFN-gamma level at 10 ug/ml incubated for 24 to 96 hrs by flow cytometry; type: functional, cell-based; details: dose 10.0 µg/ml, time 24-96 hrs
[19] = system: Splenocyte; experiment: Immunomodulatory activity in mouse splenocytes assessed as reduction in IL-10 level at 10 ug/ml incubated for 24 hrs by flow cytometry; type: functional, cell-based; details: dose 10.0 µg/ml
[20] = system: Splenocyte; experiment: Immunomodulatory activity in mouse splenocytes assessed as increase in IL-6 level at 10 ug/ml incubated for 24 hrs by flow cytometry; type: functional, cell-based; details: dose 10.0 µg/ml
[21] = system: Splenocyte; experiment: Immunomodulatory activity in mouse splenocytes assessed as increase in IL-6 level at 10 ug/ml incubated for 48 to 72 hrs by flow cytometry; type: functional, cell-based; details: dose 10.0 µg/ml, time 48-72 hrs
[22] = system: Leishmania amazonensis; experiment: Antileishmanial activity against Leishmania amazonensis WHOM/00 LTB 0016 promastigotes assessed as parasite growth inhibition incubated for 72 hrs; type: functional, organism-based; details: WHOM/00 LTB 0016, 72 h
[23] = Selectivity index, ratio of CC50 for mouse RAW264.7 cells to IC50 for Leishmania amazonensis WHOM/00 LTB 0016 promastigotes; type: toxicity; details: read-out: Ratio CC50/IC50
[24] = system: Leishmania amazonensis; experiment: Antileishmanial activity against Leishmania amazonensis WHOM/00 LTB 0016 amastigotes infected in mouse RAW264.7 cells assessed as parasite growth inhibition incubated for 24 hrs by panoptic staining based assay; type: functional, organism-based; details: WHOM/00 LTB 0016, RAW264.7, 24 h
[25] = Selectivity index, ratio of CC50 for mouse RAW264.7 cells to IC50 for Leishmania amazonensis WHOM/00 LTB 0016 amastigotes infected in mouse RAW264.7 cells; type: toxicity, cell-based; details: read-out: Ratio CC50/IC50
[26] = system: Trypanosoma cruzi; experiment: Induction of morphological changes in Trypanosoma cruzi trypomastigotes assessed as appearance of loss of cytoplasmic content at IC50 incubated for 24 hrs by SEM analysis; type: functional, organism-based
[27] = system: Splenocyte; experiment: Immunomodulatory activity in mouse splenocytes assessed as reduction in IL-6 level at 10 ug/ml incubated for 24 hrs by flow cytometry; type: functional, cell-based; details: dose 10.0 µg/ml
[28] = system: Splenocyte; experiment: Immunomodulatory activity in mouse splenocytes assessed as reduction in IL-6 level at 10 ug/ml incubated for 96 hrs by flow cytometry; type: functional, cell-based; details: dose 10.0 µg/ml
[29] = system: Trypanosoma cruzi; experiment: Antitrypanosomal activity against Trypanosoma cruzi Y trypomastigotes assessed as parasite growth inhibition incubated for 24 hrs by Neubauer chamber based analysis; type: functional, organism-based
[30] = Cytotoxicity in BALB/c mouse splenocytes incubated for 24 hrs by [3H]-thymidine based liquid scintillation counter analysis; type: toxicity, cell-based, Splenocyte

Row | IC50 [2] [µM] | IC50 [4] [µM] | Activity [8] | Compound | CC50 at 48 h [1] [µM] | selectivity ratio [3] | selectivity ratio [5] | Activity [6] | Activity [7] | Activity [9] | Activity [10] | Activity [11] | Activity [12] [%] | Activity [13] [%] | Activity [14] [%] | Activity [15] [%] | Activity [16] [%] | Activity [17] [%] | Activity [18] | IC50 [22] [µM] | selectivity ratio [23] | further results
1 | 0.9 | 0.64 | Active | CC1(C)S/C(=N/N=C/c2ccccn2)N(c2ccccc2)C1=O | 146 | 162 | 228 | Active | Active | Active | Active | Active | 0.18 | 3.66 | 21.53 | 0.33 | 4.4 | 21.27 | inactive | 42.2 | 3.5 | Activity [19]: Active; Activity [20]: Active; Activity [21]: Active; IC50 [24]: 9.58 µM; selectivity ratio [25]: 15.2
2 | 1 | 0.6 | Active | CC(C)C1S/C(=N/N=C/c2ccccn2)N(c2ccccc2)C1=O (stereo not given) | 47.4 | 46.4 | 79 | Active | Active | Active | Active | Active | 0.97 | 3.83 | 6.38 | 0.13 | 4.02 | 30.19 | inactive | 150 | 0.3 | Activity [19]: Active; Activity [28]: Active; IC50 [24]: 16.8 µM; selectivity ratio [25]: 2.82
3 | 6.09 | 0.19 | Active | S=C(N/N=C/c1ccccn1)Nc1ccccc1 | 6.09 | 1 | 31.2 | Active | Active | Active | Active | Active | 0.07 | 1.43 | 6.13 | 10.3 | 2.9 | 6.42 | inactive | 11.8 | 0.51 | Activity [27]: Active; Activity [28]: Active; IC50 [24]: 36.7 µM; selectivity ratio [25]: 0.16
4 | – | – | – | C/C(=N\N=C1/NC(=O)C(c2ccccc2)S1)c1cc(Cl)ccc1Cl (stereo not given) | – | – | – | – | – | – | – | – | – | – | – | – | – | – | – | – | – | IC50 [29]: 0.84 µM; CC50 at 24 h [30]: ≥ 100 µM

Row | Compound | IC50 [2] [µM] | IC50 [4] [µM] | Activity [8] | CC50 at 48 h [1] [µM] | selectivity ratio [3] | selectivity ratio [5] | Activity [6] | Activity [7] | Activity [9] | Activity [10] | Activity [11] | Activity [12] [%] | Activity [13] [%] | Activity [14] [%] | Activity [15] [%] | Activity [16] [%] | Activity [17] [%] | Activity [18] | IC50 [22] [µM] | selectivity ratio [23] | further results
5 | O=C(Cn1ccnc1[N+](=O)[O-])NCc1ccccc1 [BENZNIDAZOLE] | – | 6.3 | Active | 124 | 8.5 | 19.6 | Active | Active | – | – | – | 0.88 | 8.37 | 11.69 | 1.18 | 22.44 | 12.44 | – | – | – | Activity [26]: Active; Activity [27]: Active
